Data on 12 compounds can be found in patent US20200261445A1, “USE OF SENOLYTIC AGENTS TO ELIMINATE PERSISTENT HIV RESERVOIRS” (The George Washington University, priority 2017, published 2020).

The subject of one data set is Bcl-2 family proteins. As to conditions: selectivity within the Bcl-2 family, Table 1; cited from earlier work.
For another data set, the target named is Bcl-xL (Homo sapiens, UniProt Q07817). Conditions: Table 1; cited from earlier work.
Data set [1] has as its system HIV latency reservoir models spiked into natural reservoirs. As to the kind of experiment: 'Spiked' HIVE assay with QVOA (latency model cells spiked into natural reservoirs). The format is cell-based. As to conditions: Bryostatin 10 nM, ABT-199 100 nM, HIV-specific CTLs, FIG. 10. How it is done:
For experiments using CTL clones as effectors, clones were used at […] after their most recent re-stimulation. Specificity, functionality, and responsiveness of CTLs were confirmed by CD107a degranulation assays, as well as by HIV elimination assays the day before assay setup. Clones were washed extensively prior to addition to co-culture.
NK cells and CTL clones were added at 1:10 effector:target ratios, with or without the indicated latency reversing agents. […]
(§1) Co-cultures were harvested at 4 days post-initiation of co-culture. […] CD4^+ T-cells were then fixed in 2% paraformaldehyde, and analyzed by flow cytometry on an LSR-II instrument and with FlowJo software.
(§2) DNA quantification: 2×10^6 cells/condition were centrifuged and DNA, for ddPCR, was extracted from cell pellets using the Gentra Puregene kit (Qiagen), following the manufacturer's instructions. This DNA was then analyzed by digital droplet polymerase chain reaction (see below). Infectious virus quantification: The remaining cells, to be used for viral outgrowth assays, were incubated overnight in R10-50+4 nM IL-15SA (ALT-803) at a concentration of 2×10^6 cells/ml. These cells are then plated out in quantitative viral outgrowth assays (see below). […]

Data set [2] concerns HIV latency reservoir (resting CD4+ T cells). As to the kind of experiment: HIVE assay with quantitative viral outgrowth (IUPM), three HIV latency reservoir models. The format is cell-based. Conditions: A-463 only (100 nM per FIG. 9F); all three models; p<0.01. The method, then: (§3) For each condition tested, up to 200×10^6 PBMC were thawed from leukapheresis material. An aliquot of PBMCs was stained with antibodies to CD3, CD4, CD8, HLA-DR, and CD69 for flow cytometry analysis (pre-selection sample). Resting CD4^+ T-cells were enriched from these PBMC by negative selection (Easysep CD4^+ T-cell enrichment kit, Stemcell Technologies) following the manufacturer's instructions. Cells were washed and re-suspended in 1 ml of 2% FBS PBS and an aliquot was stained as above (post-selection sample). To proceed, >98% pure resting CD4^+ T-cells in the negative fraction we required. […]
as §1, §2

The test system is the same in data set [3]. As to the kind of experiment: HIVE assay with ddPCR of total HIV DNA, three HIV latency reservoir models. Conditions: A-463 only (100 nM per FIG. 9E); all three models; p<0.01. Type of data set: cell-based. The method, then: as §3, §1, §2
In a further data set the test system is resting CD4+ T cells. As to the kind of experiment: Cell cytotoxicity in HIV latency reservoir model cultures. Type of data set: cell-based, human. Conditions: ABT-199 at 1 μM; not enough cells left to measure replication-competent virus (FIG. 9A). The method, then:
For each condition tested, up to 200×10^6 PBMC were thawed from leukapheresis material. An aliquot of PBMCs was stained with antibodies to CD3, CD4, CD8, HLA-DR, and CD69 for flow cytometry analysis (pre-selection sample). Resting CD4^+ T-cells were enriched from these PBMC by negative selection (Easysep CD4^+ T-cell enrichment kit, Stemcell Technologies) following the manufacturer's instructions. Cells were washed and re-suspended in 1 ml of 2% FBS PBS and an aliquot was stained as above (post-selection sample). To proceed, >98% pure resting CD4^+ T-cells in the negative fraction we required.
NK cells and CTL clones were added at 1:10 effector:target ratios, with or without the indicated latency reversing agents. Co-cultures were performed at 2×10^6 cells/ml in XVIVO-15 serum free medium (Lonza) that had been supplemented with penicillin-streptomycin, L-glutamine, 0.1 nM IL-7 (to support survival), 1 μM tenofovir, 1 μM nevirapine, 1 μM emtricitabine, 10 μM T20, 10 U/ml DNAse I (ProSpec) ([…]). […]
Co-cultures were harvested at 4 days post-initiation of co-culture. […] CD4^+ T-cells were then fixed in 2% paraformaldehyde, and analyzed by flow cytometry on an LSR-II instrument and with FlowJo software. […]

Chain of Bcl-xL (Q07817 whole entry): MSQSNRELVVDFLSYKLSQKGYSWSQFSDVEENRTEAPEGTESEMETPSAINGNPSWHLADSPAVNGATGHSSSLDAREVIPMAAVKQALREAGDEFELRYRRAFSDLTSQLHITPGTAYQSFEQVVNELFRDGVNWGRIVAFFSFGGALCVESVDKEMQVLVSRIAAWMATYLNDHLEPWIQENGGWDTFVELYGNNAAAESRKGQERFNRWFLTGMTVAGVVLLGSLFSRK

Regarding `Cc1cc2c(C(=O)NC[C@H](C)c3ccccc3)c(O)c(O)cc2c(O)c1-c1c(C)cc2c(C(=O)NC[C@H](C)c3ccccc3)c(O)c(O)cc2c1O` [Sabutoclax], the Selective/pan entry with Bcl-2 family proteins is on record as “Pan”. The “Known Bcl-xL inhibition” value on Bcl-xL was “Yes”. Take `CC(C)C(C(=O)O)N1C(=O)/C(=C\c2ccc(Br)cc2)SC1=S` (centres unmarked) [BH31-1]: in the data set on Bcl-2 family proteins, the Selective/pan entry is on record as “Pan”. For the same compound, the “Known Bcl-xL inhibition” value on Bcl-xL is reported as “Yes”. With `CCC/C=C/C=C/C(=O)O[C@H]1/C(=C/C(=O)OC)C[C@H]2C[C@H]([C@@H](C)O)OC(=O)C[C@H](O)C[C@@H]3C[C@H](OC(C)=O)C(C)(C)[C@](O)(C[C@@H]4C/C(=C/C(=O)OC)C[C@H](/C=C/C(C)(C)[C@]1(O)O2)O4)O3` [Bryostatin, bryostatin 1], the “IUPM compared to the NoTx condition” value in data set [1] is listed as “did not lead to significant decreases”.

On to `CC(C)c1ccccc1Cc1cc(C(=O)Nc2ccc(S(=O)(=O)c3ccccc3C(C)(C)C)cc2)c(O)c(O)c1O` [TW-37], for which, in the data set with Bcl-2 family proteins, the Selective/pan entry is reported as “Pan”. Also, on Bcl-xL, the “Known Bcl-xL inhibition” value was “Yes”. As to `O=C(O)CSc1cc(NS(=O)(=O)c2ccc(Br)cc2)c2ccccc2c1O` [UMI-77], in the data set on Bcl-2 family proteins, the Selective/pan entry is listed as “Selective”. On to `CN(C)CC#Cc1ccc(OCCCc2sc(N3CCc4cccc(C(=O)Nc5nc6ccccc6s5)c4C3)nc2C(=O)O)c(F)c1` [A-1155463], for which the “infectious replicative competent (IUPM)” value in data set [2] is reported as “statistically significant reduction”. In addition, the Selective/pan result in the data set on Bcl-2 family proteins is on record as “Selective”. Besides, the “total HIV DNA copies” value in data set [3] is “statistically significant reduction”. As to `Cc1cc2c(C(C)C)c(O)c(O)c(C=O)c2c(O)c1-c1c(C)cc2c(C(C)C)c(O)c(O)c(C=O)c2c1O` [AT101], the Selective/pan result in the data set on Bcl-2 family proteins is recorded as “Pan”. In addition, on Bcl-xL, the “Known Bcl-xL inhibition” value is “Yes”. Consider `CC(C)=CCC[C@]1(C)C=Cc2c(O)c3c(c(CC=C(C)C)c2O1)O[C@]12C(=C[C@@H]4C[C@H]1C(C)(C)O[C@@]2(C/C=C(/C)C(=O)O)C4=O)C3=O` [Gambogic Acid], for which, in the data set on Bcl-2 family proteins, the Selective/pan result is reported as “Pan”. On Bcl-xL, the “Known Bcl-xL inhibition” value is given as “Yes”. `Cc1c(-c2ccc(N3CCc4cccc(C(=O)Nc5nc6ccccc6s5)c4C3)nc2C(=O)O)cnn1CC12CC3CC(CC(C3)C1)C2` [A-1331852]: the Selective/pan result in the data set with Bcl-2 family proteins is recorded as “Selective”. In the case of `Cc1nn(C)c(COc2ccc(N3CCN(S(=O)(=O)N(C)C)CC3)cc2)c1-c1cccc2c(CCCOc3cccc4ccccc34)c(C(=O)O)n(CCN3CCOCC3)c12` [A-1210477], the Selective/pan entry with Bcl-2 family proteins is listed as “Selective”.

In the case of `CC1(C)CCC(CN2CCN(c3ccc(C(=O)NS(=O)(=O)c4ccc(NCC5CCOCC5)c([N+](=O)[O-])c4)c(Oc4cnc5[nH]ccc5c4)c3)CC2)=C(c2ccc(Cl)cc2)C1` [ABT-199, Venetoclax], in the data set with resting CD4+ T cells, the cell cytotoxicity entry is given as “cell cytotoxicity”. With ABT-263, in the data set on Bcl-2 family proteins, the Selective/pan result is “Pan”. Moreover, the “Known Bcl-xL inhibition” value on Bcl-xL is “Yes”.
